Structures are written as SMILES.

This series in a line: gradient 5% acetonitrile 3 min, to 50% in 2 min, to 85% in 15 min, held 3 min, 100 µL/min. Particulars: column: Zorbax Extend-C18 2.1 x 50 mm; eluents: water / acetonitrile, 0.1% formic acid. Put shortly:
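Values are retention times taken from adduct peaks that software picked and an analyst inspected. The pure standards were run as mixtures of ~100 molecules on HPLC linked to a quadrupole time-of-flight mass spectrometer, in positive and negative ionization mode. A Zorbax Extend-C18 column (2.1 × 50 mm, 1.8 μm) was used at 100 μL/min with water and acetonitrile, each including 0.1% formic acid.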
On to `CC(C)n1cnc(S(=O)(=O)N2CCC(C(=O)Nc3ccccc3)CC2)c1`, for which the RP-LC retention time came to 748 s.

For the molecule `CCN(CC)C(=O)c1ccc2c(c1)nnn2CCNC(=O)NC(C)(C)C`, the RP-LC retention time stood at 658 s. `CC(C)(C)C(=O)N1CCCC1COc1ccc(C(=O)N2CCCC2)cc1` (stereo not drawn) yielded an RP-LC retention time of 647 s. For the molecule `COc1ccc(C2C(C(=O)NC(C)C)c3cc(OC)c(OC)cc3C(=O)N2C)cc1OC` (stereo not drawn), the RP-LC retention time is 662 s.

Molecule `CCOC(=O)N1CCN(S(=O)(=O)c2ccc(OCC)cc2OCC)CC1` registered an RP-LC retention time of 858 s. The figure for `COc1ccc(NS(=O)(=O)c2cc(-c3[nH]ncc3C(=O)N3CCCCC3)oc2C)cc1` is 731 s; for `O=C(COc1ccccc1)Nc1ccc2c(c1)N(C(=O)c1ccco1)CCC2` it is 899 s. Molecule `Fc1cccc(Nc2ncnc3c2cnn3-c2ccccc2)c1` came in with an RP-LC retention time of 1020 s. Consider `CCc1noc(NC(C)=O)c1-c1ccc(C)c(S(=O)(=O)Nc2ccc(F)cc2C)c1`, for which the RP-LC retention time was found to be 848 s. Consider `O=C(Nc1cccc(OCc2nnc(-c3ccccc3)o2)c1)c1ccccn1`, for which the RP-LC retention time came out at 954 s.

Molecule `COc1cc(OC)cc(-c2noc(Cn3ccn4nc(-c5ccc(Cl)cc5)cc4c3=O)n2)c1` came in with an RP-LC retention time of 1130 s.

In turn, `CC(=O)Nc1c(C(=O)Nc2ccc(Cl)cc2)nnn1-c1ccccc1` yielded an RP-LC retention time of 838 s.

`CC(C(=O)N1CCN(c2ccccn2)CC1)n1nc(-c2ccccc2)c2cc(Cl)ccc21` (stereo not drawn) had an RP-LC retention time of 835 s. The figure for `CC1CCN(C(=O)C2CCN(S(C)(=O)=O)c3cc(Cl)ccc3O2)CC1` (stereo not drawn) is 922 s; for `CC1=C(c2ccccc2)S(=O)(=O)N=C1N1CCCN(C(=O)Nc2ccccc2F)CC1` it is 811 s; for `CCc1ccccc1NC(=O)C1CCCN(c2ncnc3c2nc2n3CCCCC2)C1` (stereo not drawn) it is 802 s. `O=C(c1ccco1)N1CCCC(c2nn[nH]n2)C1` (stereo not drawn) gave an RP-LC retention time of 596 s. `CC(C)c1noc(C2(NC(=O)c3cccc(F)c3)CCCCC2)n1` had an RP-LC retention time of 1040 s. As for `Cc1ccc(-n2c(N3CCCC(C(=O)NCC4CC4)C3)nc3ccsc3c2=O)cc1` (stereo not drawn), the RP-LC retention time was found to be 805 s. The figure for `Cc1c2c(nn1-c1ccc(SCC(=O)NC(C)C)nn1)CCC2` is 841 s; for `O=C(NCc1ccc(F)c(Cl)c1)C1CCN(C(=O)c2ncn3c2COC(c2ccccc2)C3)CC1` (stereo not drawn) it is 842 s; for `O=C(c1ccc(F)cc1F)N1CCC2(CC1)OCC(C(=O)N1CCCC1)N2C(=O)c1ccccc1` (stereo not drawn) it is 698 s. On to `COc1cc([C@@H]2c3cc4c(cc3[C@@H](O[C@@H]3O[C@@H]5COC(c6cccs6)O[C@H]5[C@H](O)[C@H]3O)[C@H]3COC(=O)[C@H]23)OCO4)cc(OC)c1O` (stereo partly drawn), for which the RP-LC retention time was determined as 780 s. The figure for `Cc1cc(C)n(-c2ccnc(NCCc3cccnc3)n2)n1` is 584 s; for `CC(C)NC(=O)c1ccc(OCC2CCN(C(=O)c3ccccc3C(F)(F)F)CC2)cc1` it is 899 s; for `O=C(CN1Cc2ccccc2C1=O)N[C@@H](Cc1c[nH]c2ccccc12)C(=O)O` it is 661 s.

`COc1ccc(C2C(C(=O)NCc3ccco3)c3ccccc3C(=O)N2C)cc1` (stereo not drawn) yielded an RP-LC retention time of 776 s. Take `Cc1csc(CN2CCN(C(=O)CC(c3ccccc3)c3ccccc3)CC2)n1`: the RP-LC retention time came out at 665 s. In the case of `O=C(Nc1nccnc1C(=O)NCc1cccnc1)c1ccccc1`, the RP-LC retention time was 584 s. With `CCCCN(C)C(=O)c1ccc(-c2nnc3ccc(NC(=O)CC)cn23)cc1`, the RP-LC retention time was determined as 740 s. In turn, `Cc1cc(NS(=O)(=O)c2cc(-c3[nH]ncc3C(=O)N3CCCC3)oc2C)ccc1F` registered an RP-LC retention time of 730 s. For the molecule `COc1cccc2cc(C(=O)N(CCc3cccs3)Cc3cccnc3)oc12`, the RP-LC retention time stood at 671 s. In turn, `CCSc1nnc(-c2nn(C)c3c2CN(S(=O)(=O)c2ccc(OC)c(Cl)c2)CC3)n1CC` displayed an RP-LC retention time of 968 s. In the case of `Cc1cc(N2CCN(C(=O)Cc3ccc(F)cc3)CC2)nc2nncn12`, the RP-LC retention time was 596 s. The figure for `Cc1ccc(-c2nc3ncccn3c2Nc2cccc(Cl)c2C)cc1` is 915 s; for `O=C(NCc1cccc(Cl)c1)C1CCCN(c2nccnc2Sc2ccccc2)C1` (stereo not drawn) it is 1080 s; for `O=c1c(NCCN2CCCC2)nc2ccncc2n1Cc1ccccc1` it is 876 s. In turn, `O=C([C@H]1C[C@@H](F)CN1S(=O)(=O)c1cccc(C(F)(F)F)c1)N1CCOCC1` had an RP-LC retention time of 769 s.

With `Cc1cccc(-c2noc(Cn3c(=O)n(-c4ccccc4C)c(=O)c4sccc43)n2)c1`, the RP-LC retention time was found to be 1070 s. Consider `CCc1cccc(N2C=NS(=O)(=O)c3cccnc32)c1`, for which the RP-LC retention time worked out at 836 s. The molecule `Cc1nn(CC(=O)NCCCN2CCOCC2)c(=O)c2c(-n3cccc3)n(-c3ccc(F)cc3)nc12` showed an RP-LC retention time of 665 s. In the case of `CC(C)CN1CCn2cc(C(=O)N3CCN(c4ccc(F)cc4)CC3)nc2C1`, the RP-LC retention time is 613 s. Turning to `Cc1nc(-c2ccc3c(c2)n(CC(=O)NC(C)(C)C)c(=O)n3C(C)C)no1`, the RP-LC retention time was found to be 810 s. Take `Cn1c(C2CCN(C(=O)c3cc4c(s3)CCCC4)C2)nc2ccncc21` (stereo not drawn): the RP-LC retention time turned out to be 562 s. Take `CS(=O)(=O)Nc1ccc2nc(S(C)(=O)=O)sc2c1`: the RP-LC retention time stood at 661 s. With `O=S(=O)(c1ccc(-c2nnc(C3CCCC3)o2)o1)N1CCOCC1`, the RP-LC retention time was found to be 834 s. The figure for `CC1CCc2nc3ncn(CC(=O)NCc4cccc(Br)c4)c(=O)c3cc2C1` (stereo not drawn) is 825 s; for `COc1ccc(OC)c(NC(=O)c2c(C)oc3nc(C)nc(N4CCOCC4)c23)c1` it is 818 s; for `CCCN1CCN(C(=O)c2noc3c2CCCCC3)CC1` it is 613 s. `CCOCCCNC(=O)C1CCCN(c2nccnc2Oc2ccc(C)cc2)C1` (stereo not drawn): the RP-LC retention time is 926 s. The figure for `Cc1cnc(NC(=O)c2ccc(N3CCCC3)nn2)s1` is 636 s; for `COc1cccc(-n2c(=O)c3sccc3n(Cc3nc(-c4ccc(F)cc4)no3)c2=O)c1` it is 952 s; for `O=C(Cn1c(=O)c2cccn2c2ccccc21)Nc1ccc(Cl)cc1` it is 901 s. The molecule `CCC1(O)CCOC2(CCN(C(=O)CC3CC3)CC2)C1` (stereo not drawn) had an RP-LC retention time of 627 s. The result for `CCc1ccc(NC(=O)Cn2nc(N3CCOCC3)c3ccccc3c2=O)cc1` reads 874 s.

Consider `COc1cc2c(cc1OC)C(C(=O)NCCCN1CCOCC1)C1c3ccccc3CCN1C2=O` (stereo not drawn), for which the RP-LC retention time turned out to be 592 s. As for `CCOc1ccc(CNc2ccc3[nH]c(=O)[nH]c3c2)cc1`, the RP-LC retention time was determined as 605 s. On to `Cn1c(C(=O)Nc2ccc3c(c2)OCCO3)cc2c(=O)oc3ccccc3c21`, for which the RP-LC retention time turned out to be 910 s.

The values above are taken from the METLIN SMRT retention time set (Domingo-Almenara et al. 2019).
